From ChEMBL document CHEMBL1909046, “DrugMatrix in vitro pharmacology data”

Key:
[1] = molecular target: T1, Muscarinic acetylcholine receptor M4 (Homo sapiens, UniProt P08173); type: cell membranes, CHO-K1, Membrane; settings: cho-k1; further: in other assays of this panel Not Active means under 50% inhibition at 10 µM
T1 sequence (P08173 whole entry): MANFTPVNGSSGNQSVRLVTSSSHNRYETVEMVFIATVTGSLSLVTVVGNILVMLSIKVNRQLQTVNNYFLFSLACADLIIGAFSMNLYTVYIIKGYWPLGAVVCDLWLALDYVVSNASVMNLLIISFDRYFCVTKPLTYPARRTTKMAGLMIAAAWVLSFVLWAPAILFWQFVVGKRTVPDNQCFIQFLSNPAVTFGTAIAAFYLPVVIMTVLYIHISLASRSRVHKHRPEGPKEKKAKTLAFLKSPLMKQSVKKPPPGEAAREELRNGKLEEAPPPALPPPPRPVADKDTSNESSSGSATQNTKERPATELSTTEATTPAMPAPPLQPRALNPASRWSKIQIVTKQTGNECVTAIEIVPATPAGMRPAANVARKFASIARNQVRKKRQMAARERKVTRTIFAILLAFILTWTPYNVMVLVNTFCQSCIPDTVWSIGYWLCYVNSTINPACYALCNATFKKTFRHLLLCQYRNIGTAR

[2] = DRUGMATRIX: GABAA, Chloride Channel, TBOB radioligand binding (ligand: [3H] TBOB); type: cell membranes, Rattus norvegicus, Wistar, Cerebral cortex, Membrane; settings: Not Active = under 50% inhibition at 10 µM
[3] = molecular target: 5-hydroxytryptamine receptor 2B (Homo sapiens, UniProt P41595); type: cell membranes, CHO-K1, Membrane; settings: cho-k1; further: in other assays of this panel Not Active means under 50% inhibition at 10 µM
Sequence of 5-hydroxytryptamine receptor 2B (P41595 whole entry): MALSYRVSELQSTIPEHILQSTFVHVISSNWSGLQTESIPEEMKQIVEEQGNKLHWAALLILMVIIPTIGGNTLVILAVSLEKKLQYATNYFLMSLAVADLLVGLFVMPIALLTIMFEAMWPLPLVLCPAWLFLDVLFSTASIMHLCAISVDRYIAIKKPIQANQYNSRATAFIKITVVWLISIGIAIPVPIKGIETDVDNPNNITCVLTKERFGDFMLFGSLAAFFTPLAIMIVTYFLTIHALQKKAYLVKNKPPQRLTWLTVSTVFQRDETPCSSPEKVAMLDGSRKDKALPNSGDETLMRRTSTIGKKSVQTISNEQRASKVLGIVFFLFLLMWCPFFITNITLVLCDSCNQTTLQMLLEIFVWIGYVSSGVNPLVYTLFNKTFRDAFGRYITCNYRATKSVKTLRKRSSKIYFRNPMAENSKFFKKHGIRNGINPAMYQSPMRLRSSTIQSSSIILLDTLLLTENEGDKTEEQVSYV

Carbonic anhydrase 2 = Carbonic anhydrase 2 (Homo sapiens, UniProt P00918); assay: DRUGMATRIX: Carbonic Anhydrase II enzyme inhibition (substrate: 4-Nitrophenyl acetate (4-NPA)); type: tissue-based, Erythrocyte; settings: erythrocyte; Not Active = under 50% inhibition at 10 µM
Cytochrome P450 2E1 = Cytochrome P450 2E1 (Homo sapiens, UniProt P05181); settings: bti-tn-5b1-4; further: in other assays of this panel Not Active means under 50% inhibition at 10 µM
Sequence of Cytochrome P450 2E1 (P05181 whole entry): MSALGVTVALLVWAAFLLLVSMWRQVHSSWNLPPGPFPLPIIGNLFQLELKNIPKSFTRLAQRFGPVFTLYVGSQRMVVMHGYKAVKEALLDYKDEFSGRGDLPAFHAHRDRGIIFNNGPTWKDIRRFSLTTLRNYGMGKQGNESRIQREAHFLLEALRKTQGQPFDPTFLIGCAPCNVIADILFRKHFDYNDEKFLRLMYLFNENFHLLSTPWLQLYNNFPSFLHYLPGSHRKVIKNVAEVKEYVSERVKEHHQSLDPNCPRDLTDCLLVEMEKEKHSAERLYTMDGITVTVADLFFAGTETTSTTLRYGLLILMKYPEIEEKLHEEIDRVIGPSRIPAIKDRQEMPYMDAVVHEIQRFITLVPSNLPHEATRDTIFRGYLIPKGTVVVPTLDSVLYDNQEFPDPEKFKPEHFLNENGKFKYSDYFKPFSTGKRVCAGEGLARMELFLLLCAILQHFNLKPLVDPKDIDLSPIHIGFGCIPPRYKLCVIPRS

Histamine H2 receptor = Histamine H2 receptor (Homo sapiens, UniProt P25021); type: cell membranes, CHO-K1, Membrane; settings: cho-k1; further: in other assays of this panel Not Active means under 50% inhibition at 10 µM
Sequence of Histamine H2 receptor (P25021 whole entry): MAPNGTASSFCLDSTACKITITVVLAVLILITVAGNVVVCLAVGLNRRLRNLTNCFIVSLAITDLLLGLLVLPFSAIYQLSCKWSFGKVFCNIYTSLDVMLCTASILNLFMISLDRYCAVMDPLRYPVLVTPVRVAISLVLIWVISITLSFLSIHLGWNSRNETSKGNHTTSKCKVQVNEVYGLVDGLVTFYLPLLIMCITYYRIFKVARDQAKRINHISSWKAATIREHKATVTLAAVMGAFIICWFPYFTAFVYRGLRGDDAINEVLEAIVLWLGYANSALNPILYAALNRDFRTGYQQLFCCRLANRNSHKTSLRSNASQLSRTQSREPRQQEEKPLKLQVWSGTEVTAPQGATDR

CC(=O)O[C@H]1C[C@@H]2CC[C@@H]3[C@H](CC[C@@]4(C)[C@H]3C[C@H]([N+]3(C)CCCCC3)[C@@H]4OC(C)=O)[C@@]2(C)C[C@@H]1N1CCCCC1.[Br-] [VECURONIUM BROMIDE]
Not Active: IC50 [1] | IC50 [2] | Ki [2] | IC50 [3] | IC50 (Carbonic anhydrase 2) | IC50 (Cytochrome P450 2E1) | Ki (Cytochrome P450 2E1) | IC50 (Histamine H2 receptor)

COc1cc(C(=O)NS(=O)(=O)c2ccccc2C)ccc1Cc1cn(C)c2ccc(NC(=O)OC3CCCC3)cc12 [ZAFIRLUKAST]
Not Active: IC50 [1] | IC50 [2] | Ki [2] | IC50 [3] | IC50 (Carbonic anhydrase 2) | IC50 (Cytochrome P450 2E1) | Ki (Cytochrome P450 2E1) | IC50 (Histamine H2 receptor)

Cc1cn([C@H]2C[C@H](N=[N+]=[N-])[C@@H](CO)O2)c(=O)[nH]c1=O [ZIDOVUDINE]
Not Active: IC50 [1] | IC50 [2] | Ki [2] | IC50 [3] | IC50 (Carbonic anhydrase 2) | IC50 (Cytochrome P450 2E1) | Ki (Cytochrome P450 2E1) | IC50 (Histamine H2 receptor)

STANNOUS FLUORIDE
Not Active: IC50 [1] | Ki [1] | IC50 [2] | Ki [2] | IC50 [3] | Ki [3] | IC50 (Carbonic anhydrase 2) | Ki (Carbonic anhydrase 2) | IC50 (Cytochrome P450 2E1) | Ki (Cytochrome P450 2E1) | IC50 (Histamine H2 receptor) | Ki (Histamine H2 receptor)

THIMEROSAL
Not Active: IC50 [1] | Ki [1] | IC50 [2] | Ki [2] | IC50 [3] | Ki [3] | IC50 (Carbonic anhydrase 2) | Ki (Carbonic anhydrase 2) | IC50 (Cytochrome P450 2E1) | Ki (Cytochrome P450 2E1) | IC50 (Histamine H2 receptor) | Ki (Histamine H2 receptor)
